This is an account of results in ChEMBL document CHEMBL5532655, “Discovery of (R)-4-(8-methoxy-2-methyl-1-(1-phenylethy)-1H-imidazo[4,5-c]quinnolin-7-yl)-3,5-dimethylisoxazole as a potent and selective BET inhibitor for treatment of acute myeloid leukemia (AML) guided by FEP calculation” (Eur J Med Chem, 2024).

Molecules are shown by their SMILES. Calls of active or inactive are those of the source. The rule behind the calls is not given here.

For data set [1], the system named is MV4-11. The data set can be described thus: Induction of apoptosis in human MV4-11 cells assessed as early apoptotic cells at 0.625 uM incubated for 24 hrs by annexin V-FITC/PI staining based flow cytometric analysis (reference value: 0%). The class given is functional.
The nature of data set [2]: Half life in Sprague-Dawley rat at 1 mg/kg,iv administration measured upto 24 hrs by LC-MS/MS analysis. The data set is classed as ADME, organism-based. To be noted: in vivo.
Data set [3] can be described thus: Volume of distribution at steady state in Sprague-Dawley rat at 1 mg/kg,iv administration measured upto 24 hrs by LC-MS/MS analysis. The conditions noted are these: in vivo, read-out: Vdss. The data set is classed as ADME, organism-based.
Data set [4] in a line: AUC (0-infinity) in Sprague-Dawley rat at 1 mg/kg,iv administration measured upto 24 hrs by LC-MS/MS analysis. The data set is classed as ADME, organism-based. To be noted: in vivo.
Data set [5] in a line: MRTinfinity in Sprague-Dawley rat at 10 mg/kg,po administration measured upto 24 hrs by LC-MS/MS analysis. The conditions noted are these: in vivo. The class given is ADME, organism-based.
The nature of data set [6]: Apparent oral clearance in Sprague-Dawley rat at 10 mg/kg,po administration measured upto 24 hrs by LC-MS/MS analysis. The data set is classed as ADME, organism-based. The conditions noted are these: in vivo.
Data set [7] can be described thus: AUC (0-t) in Sprague-Dawley rat at 10 mg/kg,po administration measured upto 24 hrs by LC-MS/MS analysis. The class given is ADME, organism-based. The conditions noted are these: in vivo.
The nature of data set [8]: Apparent volume of distribution during terminal phase in Sprague-Dawley rat at 10 mg/kg,po administration measured upto 24 hrs by LC-MS/MS analysis. The conditions noted are these: in vivo, read-out: Vz/F. The class given is ADME, organism-based.
A short description of data set [9]: Tmax in Sprague-Dawley rat at 10 mg/kg,po administration measured upto 24 hrs by LC-MS/MS analysis. The conditions noted are these: in vivo. The data set is classed as ADME, organism-based.
Data set [10] relates to MV4-11. The data set can be described thus: Induction of apoptosis in human MV4-11 cells assessed as viable cells at 1.25 uM incubated for 24 hrs by annexin V-FITC/PI staining based flow cytometric analysis (reference value: 97%). The data set is classed as functional. To be noted: Homo sapiens, MV4-11, read-out: Activity.
Data set [11] deals with MV4-11. Put plainly: Induction of apoptosis in human MV4-11 cells assessed as viable cells at 2.5 uM incubated for 24 hrs by annexin V-FITC/PI staining based flow cytometric analysis (reference value: 97%). To be noted: Homo sapiens, MV4-11, read-out: Activity. The class given is functional. Background: In flow cytometry, cells or beads pass a laser one at a time.
The test system of data set [12] is MV4-11. Put plainly: Induction of apoptosis in human MV4-11 cells assessed as early apoptotic cells at 2.5 uM incubated for 24 hrs by annexin V-FITC/PI staining based flow cytometric analysis (reference value: 0%). The data set is classed as functional.
Data set [13] concerns MV4-11. The data set can be described thus: Induction of apoptosis in human MV4-11 cells assessed as early apoptotic cells at 10 uM incubated for 24 hrs by annexin V-FITC/PI staining based flow cytometric analysis (reference value: 0%). The class given is functional.
Data set [14] relates to MV4-11. Put plainly: Induction of apoptosis in human MV4-11 cells assessed as late apoptotic cells at 0.625 uM incubated for 24 hrs by annexin V-FITC/PI staining based flow cytometric analysis (reference value: 0.04 %). The data set is classed as functional.
In data set [15] the test system is MV4-11. Put plainly: Induction of apoptosis in human MV4-11 cells assessed as late apoptotic cells at 1.25 uM incubated for 24 hrs by annexin V-FITC/PI staining based flow cytometric analysis (reference value: 0.04 %). The data set is classed as functional.
Data set [16] relates to MV4-11. The data set can be described thus: Induction of apoptosis in human MV4-11 cells assessed as necrotic cells at 2.5 uM incubated for 24 hrs by annexin V-FITC/PI staining based flow cytometric analysis (reference value: 2.35 %). The class given is functional.
Data set [17] relates to MV4-11. Put plainly: Induction of cell cycle arrest in human MV4-11 cells assessed as accumulation of cells at G0/G1 phase at 0.3125 uM incubated for 24 hrs by propidium iodide staining flow cytometric analysis (reference value: 37.64 %). The data set is classed as functional.
Data set [18] relates to MV4-11. Put plainly: Induction of cell cycle arrest in human MV4-11 cells assessed as accumulation of cells at G0/G1 phase at 2.5 uM incubated for 24 hrs by propidium iodide staining flow cytometric analysis (reference value: 37.64 %). The class given is functional.
For data set [19], the system named is MV4-11. The data set can be described thus: Induction of cell cycle arrest in human MV4-11 cells assessed as accumulation of cells at G2/M phase at 0.3125 uM incubated for 24 hrs by propidium iodide staining flow cytometric analysis (reference value: 18 %). The class given is functional.
Data set [20] has as its system MV4-11. Put plainly: Induction of cell cycle arrest in human MV4-11 cells assessed as accumulation of cells at G2/M phase at 0.625 uM incubated for 24 hrs by propidium iodide staining flow cytometric analysis (reference value: 18 %). The data set is classed as functional.
Data set [21] concerns MV4-11. Put plainly: Induction of cell cycle arrest in human MV4-11 cells assessed as accumulation of cells at G2/M phase at 5 uM incubated for 24 hrs by propidium iodide staining flow cytometric analysis (reference value: 18 %). The data set is classed as functional.
Data set [22] relates to MV4-11. The data set can be described thus: Induction of cell cycle arrest in human MV4-11 cells assessed as accumulation of cells at S phase at 0.3125 uM incubated for 24 hrs by propidium iodide staining flow cytometric analysis (reference value: 43.94 %). The class given is functional.
Data set [23] concerns MV4-11. The data set can be described thus: Induction of cell cycle arrest in human MV4-11 cells assessed as accumulation of cells at S phase at 0.625 uM incubated for 24 hrs by propidium iodide staining flow cytometric analysis (reference value: 43.94 %). The class given is functional.
Data set [24] has as its system MV4-11. The data set can be described thus: Induction of cell cycle arrest in human MV4-11 cells assessed as accumulation of cells at S phase at 1.25 uM incubated for 24 hrs by propidium iodide staining flow cytometric analysis (reference value: 43.94 %). The class given is functional.
The test system of data set [25] is MV4-11. Put plainly: Induction of cell cycle arrest in human MV4-11 cells assessed as accumulation of cells at S phase at 2.5 uM incubated for 24 hrs by propidium iodide staining flow cytometric analysis (reference value: 43.94 %). The class given is functional.
Data set [26] deals with MV4-11. The data set can be described thus: Induction of cell cycle arrest in human MV4-11 cells assessed as accumulation of cells at S phase at 5 uM incubated for 24 hrs by propidium iodide staining flow cytometric analysis (reference value: 43.94 %). The class given is functional.
Data set [27] has as its system MV4-11. Put plainly: Induction of apoptosis in human MV4-11 cells assessed as downregulation of c-Myc expression incubated for 48 hrs by Western blotting analysis. The data set is classed as functional, cell-based.
Data set [28] relates to MV4-11. Put plainly: Induction of apoptosis in human MV4-11 cells assessed as downregulation of CDK6 expression at 0.3125 to 2.5 uM incubated for 48 hrs by Western blotting analysis. The class given is functional, cell-based. The conditions noted are these: dose 0.3125-2.5 µM. Background: A western blot detects proteins with antibodies after separation by electrophoresis.

In data set [29] the test system is MV4-11. Put plainly: Induction of apoptosis in human MV4-11 cells assessed as upregulation of PARP expression at 0.3125 to 2.5 uM incubated for 48 hrs by Western blotting analysis. The data set is classed as functional, cell-based. The conditions noted are these: dose 0.3125-2.5 µM.
In data set [30] the test system is MV4-11. The data set can be described thus: Induction of apoptosis in human MV4-11 cells assessed as upregulation of PARP expression at 500 nM hrs by Western blotting analysis. The data set is classed as functional, cell-based. To be noted: TDE = time-dependent effect.
For data set [31], the system named is MV4-11. The data set can be described thus: Induction of apoptosis in human MV4-11 cells assessed as upregulation of cleaved PARP expression at 500 nM hrs by Western blotting analysis. The data set is classed as functional, cell-based. The conditions noted are these: TDE = time-dependent effect.
The test system of data set [32] is MV4-11. Put plainly: Induction of apoptosis in human MV4-11 cells assessed as upregulation of p21 expression at 500 nM hrs by Western blotting analysis. The class given is functional, cell-based. The conditions noted are these: TDE = time-dependent effect.
For data set [33], the system named is MV4-11. Put plainly: Antitumor activity against human MV4-11 cells xenografted in BALB/c mouse assessed as tumor growth inhibition at 30 mg/kg administration relative to control. The class given is functional. The conditions noted are these: read-out: TGI. In general terms: Xenograft models place foreign cells or tissue in a host animal.
The subject of data set [34] is MV4-11. Put plainly: Antitumor activity against human MV4-11 cells xenografted in BALB/c mouse assessed as tumor growth inhibition at 50 mg/kg administration relative to control. To be noted: read-out: TGI. The class given is functional.
Data set [35] has as its target Bromodomain testis-specific protein (Homo sapiens) (UniProt Q58F21). To be noted: time 30.0 min.

The half-life is the time in which the quantity being followed falls by half. A high value points to slow loss. As usually defined, the AUC(0-inf) is the area under the concentration-time curve extrapolated to infinity. A low value points to less exposure. The MRT inf is a mean duration of stay, worked out from the concentration-time curve. A word on the CL/F: it is clearance divided by bioavailability, as obtained after extravascular dosing. The term AUC(0-t) denotes exposure summed from dosing to a finite time, without extrapolation to infinity. Read a high AUC(0-t) as high exposure. One may read the Tmax as the time from dosing to the highest level. With `COc1cc2c(cc1-c1c(C)noc1C)ncc1nc(C)n([C@H](C)c3ccccc3)c12`, the Activity in [1] was 6.87%; in data set [12], 8.72%; in [13], 10.04%; in [14] it was 4.8%; in [15] it was 6.32%; in data set [16] it was 8%. Further, the Activity in data set [17] amounted to 48.98%; in data set [18], 72.14%; in data set [19] it was 6.33%; in data set [20] it was 16.18%; in data set [21], 3.63%; in data set [22], 44.55%. The Activity in [23] was 44.55%; in data set [24], 23.31%; in data set [25], 20.35%; in data set [26], 17.41%; in data set [27], “Dose-Dependent Effect”; in data set [30] it was “Tde”. In addition, the Activity result in data set [31] and in [32] was “Tde” each time. Also, the half-life in data set [2] is 42 min. The Vd in data set [3] came to 0.6 L/kg. The same compound came in with an AUC(0-inf) in data set [4] of 1400 ng·h/mL. The MRT inf in data set [5] worked out at 5.86 h. Also, the CL/F in data set [6] was found to be 10.4 mL/min/kg. In data set [7], this compound had an exposure AUC(0-t) at 24 h of 16000 ng·h/mL. Moreover, the Vd/F in [8] was determined as 2.39 L/kg. The Tmax in data set [9] amounted to 1 h. In data set [10], the viability at 1.25 µM turned out to be 83.1%. The viability at 2.5 µM in data set [11] stood at 81.7%. For the same compound, the result in data set [28] and in [29] was Active. Besides, the inhibition in vivo at 30 mg/kg in data set [33] came out at 55.1%. Further, in data set [34], the inhibition in vivo at 50 mg/kg turned out to be 70.4%.
The term ΔTm denotes the change in melting temperature against a reference sample. Consider `COc1cc2c(cc1-c1c(C)n[nH]c1C)ncc1nc(C)n([C@H](C)c3ccccc3)c12`, for which the thermal shift (ΔTm) in data set [35] turned out to be 5 °C.
